# Measurements reported in a melting point compilation (Tetko et al.; mined from patent text by program, amines drawn as free bases though some values may be those of a salt).
row,SMILES,melting point [°C]
1,Cc1cccc2c3c(n(Cc4ccc(F)cc4)c12)CCCC3=O,154 to 155
2,O=C(Cc1ccc(O)cc1)NC1CCN(Cc2ccc(Cl)c(Cl)c2)CC1,72 to 97
3,Cc1csc(N2CCN(CC(O)c3ccc(O)c(C(N)=O)c3)CC2)n1 (configuration not stated),182
4,CC1(O)c2ccc(Cl)cc2CC1(F)S(C)(=O)=O (configuration not stated),148
5,CCCCCCCCCCCCCCCCC#CCO,60
6,CC(C)C[C@H](NC(=O)OCc1ccccc1)C(=O)N[C@@H](Cc1ccccc1)C(=O)COCc1ccco1,94 to 95
7,CC(C)CNC(=O)c1ccc(C(=O)O)cc1[N+](=O)[O-],255 to 257
8,COc1ccc(CCl)cc1OCc1nc(-c2ccco2)oc1C,115 to 116
9,CCOc1nc(C)ccc1C#N,90 to 92
10,CCOC(=O)C(C#N)=CNc1ccc([N+](=O)[O-])cc1,227 to 228
11,O=C1c2ccccc2C(=O)N1OCc1cccc(C(F)(F)F)c1,106 to 108
12,CC(=O)N(CCN1CCNC1=C(C#N)C#N)Cc1ccc(CN2CCCCC2)o1,166 to 167
13,NC(=O)C1CN(Cc2ccccc2)CC1O (configuration not stated),128
14,CCOc1cc(CN2CCN(c3ccc(C(=O)NC4CC4)cc3C)CC2)cc2c1OC(C)C(=O)N2 (configuration not stated),223 to 224
15,Oc1ccc(C2CCOCC2)cc1Cl,123 to 125
16,O=C(Nc1ccc(Cl)c(Cl)c1)OCCCC(O)c1ccccc1 (configuration not stated),86 to 89
17,CCOc1cc(OCCCc2cn(-c3ccc(C(F)(F)F)cn3)nc2OC)ccc1CCC(=O)O,145 to 146
18,N#CCc1cc(F)c(OCc2ccccc2)c(OCc2ccccc2)c1,120 to 121
19,Cc1nc2cnccc2n1-c1ccc(C2=Nc3ccccc3NC(=O)C2)cn1,208 to 210
20,COc1cc(C2=CCCCC2)c(Cl)cc1C(=O)N1Cc2ccc(C(=O)N(C)CC(O)CO)n2Cc2ccccc21 (configuration not stated),155 to 157
21,CCCCCSCCSCCSCCCCC,< 50
22,COc1ccc(C(=O)Nc2ccccc2)cc1Nc1cccc(Cl)c1,168 to 170
23,CCNc1ccc(-c2nnsc2-c2ccc(NCC)cc2)cc1,96.5 to 98.5
24,CCC(=O)Nc1ccc(-n2cc(CCCOc3c(CC(=O)O)cccc3OC)c(C(C)C)n2)nc1,147 to 148
25,FC(F)c1ccccc1C=C1c2ccccc2CCc2ccccc21,13.3
26,Cc1ccc2c(c1)C(=O)N(C)Cc1c(C#N)ncn1-2,252

row,SMILES,melting point [°C]
1,COC(=O)c1ccc(OC(=O)c2ccccc2)cc1OC,91
2,CS(=O)(=O)c1ccc(-c2cnn(-c3cccc(Cl)c3)c(=O)c2COc2ccc(F)cc2)cc1,50 to 80
3,C[C@]12CCC(=O)N[C@@H]1CCc1cc(-c3ccccc3Cl)ccc12,189 to 191
4,COC(=O)C1=C(C)NC(C)=C(Cl)C1c1ccccc1 (configuration not stated),147
5,CCCCCCOc1ccc(C=CC(C)=CC=CC(=O)O)cc1,181 to 185
6,CC1(N)CN(c2nc3c(cc2F)c(=O)c(C(=O)O)cn3C2CC2)C1,285 to 287
7,CSc1nccc(-c2c3cccnc3n3c(N)nccc23)n1,223 to 224
8,CCCCCCC(C)(C)c1ccc(C2CC(=O)C=C(C)C2)c(OCc2ccccc2)c1 (configuration not stated),60 to 61
9,CC(C)c1cccc(C(C)C)c1NC(=O)CNC(c1ccccc1)c1ccccc1Cl (configuration not stated),119 to 121
10,CN(C)C1CCN(C2CCN(c3ncc4ncnc(Nc5ccc(F)c(Cl)c5)c4n3)CC2)CC1,160 to 165
11,COc1ccc(/C(C#N)=C/c2ccc(OC)c(OC3CCCC3)c2)cc1OC,101 to 103
12,CN(C)CCc1cn(Cc2ccccc2)c2ccc(Br)cc12,49 to 50
13,CCCC(=O)NS(=O)(=O)c1cccc(-c2cccc(-c3cc(-c4ccc(C(F)(F)F)cc4)cc(C)n3)n2)c1,188
14,CC(C)c1noc(-c2c(Cl)ccc(C(=O)c3cnn(C)c3O)c2Cl)n1,138 to 144
15,O=C(O)c1ccc2c(c1)CCc1c(Cl)cccc1C2=O,258 to 260
16,COc1cc(OC)nc(Oc2ccccc2C(=O)ON(C)C)n1,71 to 72.5
17,O=C(O)C(O)c1ccc2oc([N+](=O)[O-])c(-c3ccccc3)c2c1 (configuration not stated),158 to 161
18,O=C(O)C1=Cc2cc(C(F)(F)F)ccc2NC1C(F)(F)F (configuration not stated),150 to 156
19,CCCCCCCCCCC[C@H](C[C@H](O)[C@H](CCCCCC)C(=O)O)OCc1ccccc1,57 to 60
20,O=C(Nc1cc2ncc(CN3CCCC3)cc2cc1F)c1ccc(Br)cc1,119 to 121
21,O=[N+]([O-])c1cn2c(n1)OC[C@@H](OCc1ccc(Br)cn1)C2,171 to 173
22,N#Cc1ccc(C(=Cc2ccc(C#N)cn2)Cn2cncn2)cc1,211
23,O=C(NCCCC[C@@H](C(=O)O)n1c2ccccc2c2ccccc21)c1ccc(C(=O)c2ccccc2)cc1,97 to 98
24,COc1cc(Nc2nccc(-c3ccc(NCCO)nc3)n2)cc(OC)c1OC,123
25,COc1ccc2c(c1)C(C(=O)Nc1c(C(C)C)cccc1C(C)C)c1cccnc1CO2 (configuration not stated),180 to 181
26,CCC(=O)Nc1ccccc1C(F)(F)F,86

row,SMILES,melting point [°C]
1,CC1(C)CC(S(=O)(=O)Cc2c(C(F)(F)F)nn(-c3ccccc3)c2Cl)=NO1,132 to 133
2,CN1CCN(c2cccc(Nc3cc(NC(=O)Nc4c(Cl)cccc4Cl)ncn3)c2)CC1,209 to 212
3,CCOC(=O)NNC(=S)NC,117
4,O=C(O)c1cn(C2CC2)c2c(F)c(N3CCC(n4nncc4C(=O)O)C3)c(F)cc2c1=O (configuration not stated),214
5,CC(C)(C)NC(=O)NCc1ccc2c(c1)C(=O)N(C1CCC(=O)NC1=O)C2=O (configuration not stated),202 to 204
6,CC(C)CNC(=O)COc1ccc(C2=NNC(=O)NC2C)cc1Cl (configuration not stated),205 to 206
7,CC(C)COC(=O)N1CCC(c2ccc(COc3ccc(S(C)(=O)=O)cc3)nc2)CC1,114 to 117
8,CCC(=O)N(C(=O)CC)c1c(OCc2ccccc2)cc(Br)cc1[N+](=O)[O-],90 to 92
9,Cc1cc2nc(C)n(COC(=O)C(C)(C)C)c(=O)c2cc1CBr,149 to 152
10,CCOC(=O)CCn1c(=O)c2ccccc2n(CCCCCl)c1=O,71 to 72
11,C[C@H](C(=O)O)[C@H](O)c1ccccc1,89 to 90
12,Cc1cc(Nc2ccc(Cl)cc2)nc(-n2nc(C)cc2C)n1,181 to 183
13,CCc1[nH]n(C2CCCC2)c2nc(Cc3ccc(OCCN4CCOCC4)cc3)nc(=O)c1-2,136 to 137
14,O=C(N[C@H]1CC[C@H](CCN2CCC(c3cccc4c3CCO4)CC2)CC1)c1ccc(Cl)cc1,224
15,CCOC(=O)C1=C(COCCCN(C)C)NC(C)=C(C(=O)OC)C1c1ccccc1Cl (configuration not stated),77 to 78
16,CSC(C[N+](=O)[O-])NCCSCc1cc(C)c(CN(C)C)s1 (configuration not stated),69 to 71
17,CCC1(CCn2ccnc2)SCCS1,118 to 121
18,Oc1cc2c(cc1O)-c1cc3cc(O)c(O)cc3nc1CC2,> 220
19,CCNC(=O)[C@H](C)C[C@H](O)[C@H](CC1CCCCC1)NC(=O)OC(C)(C)C,126 to 127
20,CCOP(=O)(CNCc1cccnc1-c1cc(OC)c(O)c(OC)c1)OCC,99 to 101
21,CC(C)CCC1(c2ccccc2)CC(O)=C(Sc2ccccc2C(C)C)C(=O)O1 (configuration not stated),64 to 66
22,COC(=O)C1=Cc2cc(Br)ccc2SCC1,94 to 95
23,CCC(=O)Nc1ccc(N)c(=O)cc1,203 to 205
24,Oc1cc2ccc(Br)cc2cc1C12CC3CC(CC(C3)C1)C2,215 to 216
25,CC(=O)N(C)c1cccnc1S(N)(=O)=O,181 to 185
26,Nc1cc(C(F)(F)F)cc(C(F)(F)F)n1,70.8 to 71.2

row,SMILES,melting point [°C]
1,O=c1c2ccc(Cl)cc2ncn1CCCCn1ccnc1,123 to 125
2,CC(=O)n1nc(N2CCN(C)CC2)c2ccccc21,106 to 108
3,CN(C)c1cc(C(=O)O)ncn1,250
4,COc1cc(C)nc(NC(=O)NS(=O)(=O)c2cccc3cccnc23)n1,181 to 185
5,Nc1nc(Br)cn2c(Br)cnc12,246
6,CC(=O)Nc1cccc2c1C(=O)c1c-2n[nH]c1C(C)C,> 250
7,CNc1nc(SC)ncc1Cl,241
8,O=C(c1ccc(Cl)cc1)c1ccc2c(c1)C(c1cccc(Cl)c1)=NCc1nnnn1-2,220
9,COc1nc2cc(Br)cc(CNC(=O)C(=O)O)c2nc1OC,> 300
10,COCOc1ccccc1COc1cc2c(cc1-c1cc(C=CC(=O)O)ccc1OC)C(C)(C)CCC2(C)C,159 to 161
11,CCCCCCCCC1N=C(N)NC(Nc2cc(C(C)(C)C)ccc2OC)=N1 (configuration not stated),129 to 132
12,O=C(OC1CCCCC1)c1ccc(Nc2nc(Nc3ccc(C(=O)OC4CCCCC4)cc3)nc(Nc3ccc(C(=O)OC4CCCCC4)cc3)n2)cc1,171 to 173
13,Cc1cc2cc(CN3CCC(CCC(=O)N(C)C)CC3)cnc2cc1NC(=O)c1ccc(-c2ccc(F)cc2)cc1,193 to 196
14,CCOC(=O)c1nc2ccc(OC)cc2nc1SCC,70
15,Clc1ccc(-c2cc(Cl)nc(Cl)n2)cc1,130 to 132
16,O=C(SC(Cn1ccnc1)c1ccc(Cl)cc1Cl)c1ccccc1 (configuration not stated),115 to 116
17,N#Cc1cc(N)nc(SCc2ccc3ccccc3c2)n1,154 to 155
18,CC(=O)OC1Oc2ccc(OS(=O)(=O)N(C)C)cc2C1(C)C (configuration not stated),67 to 68
19,O=C(CCCCCNC(=O)OCc1ccccc1)N[C@@H](Cc1ccccc1)C(=O)O,119 to 120
20,O=C1CC(C(F)(F)F)CC(=O)N1c1cc(O)c(Cl)cc1F,112 to 114
21,CCCCCCCCCCCCCCCCCC(=O)N1CCN(c2cc(N3CCCC3)nc(N3CCCC3)n2)CC1,102 to 104
22,CNS(=O)(=O)c1ccc2c(c1)C=C(C(=O)O)C(C(F)(F)F)O2 (configuration not stated),208 to 209
23,O=C1OC(=O)c2c1cccc2C(Cl)(Cl)Cl,121 to 124
24,N#Cc1ccc(N2C(=O)[C@@H]3[C@H](O)CCN3C2=S)c2ccccc12,215 to 216
